Data as given in US5763208A, “Oligonucleotides and their analogs capable of passive cell membrane permeation” (Gilead Sciences, Inc., priority 1996, dated 1998).
Read-outs that look alike come from different tables or passages of the source.

Tests used:
[1] = cited from earlier work
[2] = pH dependence of fluorescence of fluorescein; format: physicochemical
From the text: A preferred fluor is fluorescein.

[3] = test system: most of the cell types tested
Experimental: Within 15 min after washing the dye away from the exterior of the cells, the intracellular pool of the dye is pumped out, either by an organic anion pump mechanism or by diffusion.
The cell staining assay utilized various cell lines and included P388D1 (mouse macrophage), HEPG2 (human liver), CV1 (monkey epithelial), ccd50sk (untransformed human fibroblast), Rat2 (rat fibroblast), MDCK (kidney cells), L6 (rat myoblast), L cells (mouse fibroblast), HeLa (human adenocarcinoma), skov3 (human ovarian adenocarcinoma), and skbr3 (human breast adenocarcinoma) cells. Other cell lines that were used included Jurkat (human T cell), H9 (human T cell), NIH3T3 (mouse fibroblast), HL60 (human T cell), and H4 (rat liver). All cell lines are commercially available from the American Type Culture Collection, Rockville, Md.
Cells were grown on 25 mm-#1 coverslips in media containing 25 mM HEPES, pH 7.3, (which helps maintain pH on the microscope) without phenol red (which can lead to high background fluorescence when working with living cells). Coverslips were used so that the high numerical aperture oil-immersion lenses on the microscope could be used. The coverslips were mounted onto "viewing chambers": 6-well petri dishes which have 22 mm holes drilled into the bottom. […]

[4] = known values of standard compounds used for the standard curve (Veith et al.)

SMILES: Nc1ccccc1O [2-aminophenol]
- Log Poct ([1]; octanol/water): 0.62

SMILES: Nc1cccc(O)c1 [3-aminophenol]
- Log Poct [1, 4]: 0.17

SMILES: Nc1ccccc1 [aniline]
- Log Poct [1, 4]: 0.9

SMILES: O=C1OC2(c3ccc(O)cc3Oc3cc(O)ccc32)c2ccccc21 [fluorescein]
- net charge ([2]; pH 5.0): net neutral charge
- fluorescence at pH 5.0 relative to pH 7.5 ([2]; pH 5.0 vs pH 7.5): greater than an order of magnitude less fluorescent
- net charge ([2]; pH 7.5): net negative charge
- time in which the intracellular pool of the dye is pumped out [3]: ≤ 15 min
- cell permeation of dye ([3]; not told): permeant to most of the cell types tested

SMILES: Nc1ccccc1[N+](=O)[O-] [o-nitroaniline]
- Log Poct [1, 4]: 1.44
